Entries after “also recorded” stand apart in the source; their conditions may differ.
Experiments:
SH-SY5Y neuronal cells = assay: Apoptosis in TNF-α-induced SH-SY5Y cells (Annexin V-FITC/PI flow cytometry); type: cell-based; details: 60 ng/ml TNF-α, 48 hours; YN-011 10, 100, 500 nM; GABA 1, 10, 100 μM; combination 100 μM GABA + 100 nM YN-011
Experimental: Digest the SH-SY5Y neuronal cells in a 10 cm culture dish using 0.25% trypsin to prepare a single-cell suspension. Seed the single-cell suspension into a 12-well plate. Place the culture plate in a CO2 incubator and pre-culture overnight at 37° C. with 5% CO2 to allow the cells to adhere. Using medium containing 5% FBS, treat the cells in each well with 60 ng/ml TNF-α alone or co-treated with 10, 100, or 500 nM YN-011 at 37° C. for 48 hours. Each drug treatment is performed in three replicate wells. Collect the cells and digest the cells with 0.25% trypsin without EDTA for 1 minute. Transfer the cell suspension to a 1.5 ml EP tube, centrifuge at 1000 rpm for 5 minutes, and pellet the cells at the bottom of the tube. Resuspend […] in 100 μl Binding Buffer, add 5 μl of PI and 5 μl of Annexin V-FITC solution, and incubate at room temperature in the dark for 15 minutes. Add 400 μl of Binding Buffer to each tube, and detect using a flow cytometer (Annexin V-FITC excitation wavelength: 488 nm, emission wavelength:
520 nm; PI excitation wavelength: 535 nm, emission wavelength: 617 nm). Count the number of Annexin V-FITC positive cells and PI negative cells in each sample.
Please refer to section 8.14 for the experimental procedure, but the drug treatment in this experiment is different from that in section 8.14. […]

HMC3 microglial cells = assay: Inflammatory factor mRNA in HMC3 microglial cells induced by Aβ1-42 oligomers (qPCR); type: cell-based, human; details: for mRNA expression of IL-6 / mRNA expression of TNF-α: 10 μM Aβ1-42 oligomers, 48 hours, YN-011 100 nM and 500 nM; for mRNA expression of IL-6: GABA 10 μM and 100 μM (so in the source); for mRNA expression of TNF-α: GABA 100 μM, combination 100 μM GABA and 100 nM YN-011; for inflammatory cytokine mRNA expression: Aβ1-42 oligomers (figure legends)
Experimental: Under sterile conditions, dissolve the synthesized Aβ1-42 peptide (AnaSpec #AS-20276) in hexafluoroisopropanol (Mecklin #H811026) to obtain a 1 mM solution. Divide the solution into 1.5 ml sterile centrifuge tubes and evaporate the hexafluoroisopropanol in a vacuum evaporator. The dried peptide forms a film in the tubes and is stored at −20° C. for later use. Freshly prepare Aβ1-42 oligomers from the dried peptide film as follows: dissolve the dried peptide film in anhydrous DMSO to obtain a 5 mM solution, then dilute with cold cell culture basal medium to obtain a 100 µM stock solution. After incubating at 4° C. for 24 hours, use the stock solution for cell treatment.
Seed HMC3 human microglial cells into a 24-well plate. After overnight incubation at 37° C. with 5% CO2, treat the cells in each well with 10 μM Aβ1-42 oligomers alone or co-treated with 1, 10, or 100 μM GABA for 48 hours. Each drug treatment is performed in three replicate wells. After 48 hours of treatment, isolate total RNA from the cells in each well using 1 ml of Trizol (Invitrogen #15596026) following the manufacturer's instructions. Dissolve the RNA pellet in 20 μl of DEPC-treated water. Measure the RNA concentration and purity using a NanoDrop 2000. Convert RNA into cDNA using a reverse transcription kit (Yeasen #11141ES60). Prepare the PCR reaction as follows: 5 μl of PCR mix (Yeasen #10108ES03), 0.2 μl of forward primer, 0.2 μl of reverse primer, 1 μl of cDNA, and 3.6 μl of water. Perform qPCR on an Applied Biosystems 7500 real-time PCR system using the following thermal program: initial denaturation at 95° C. for 3 minutes, followed by 40 cycles of denaturation at 95° C. for 30 seconds, annealing at 60° C. for 30 seconds, and extension at 72° C. for 1 minute. Compare the relative mRNA expression of TNF-α and IL-6 between treated and untreated cells using the ΔΔCt method, normalized to the expression of the housekeeping gene RPLP0.
Please refer to section 8.17 for the experimental procedure, but the drug treatment in this experiment is different from that in section 8.17. In this experiment, the drug treatment is as follows: treat the cells in each well with 10 μM Aβ1-42 oligomers alone or co-treated with 10, 100, or 500 nM YN-011 for 48 hours. Each drug treatment is performed in three replicate wells.
Please refer to section 8.17 for the experimental procedure, but the drug treatment in this experiment is different from that in section 8.17. In this experiment, the drug treatment is as follows: treat the cells in each well with 10 µM Aβ1-42 oligomers alone or co-treated with 100 μM GABA and/or 100 nM YN-011 for 48 hours. Each drug treatment is performed in three replicate wells.

Row | Molecule | apoptosis in TNF-α-induced neuronal cells (Annexin V-FITC positive, PI negative cells) (SH-SY5Y neuronal cells) | mRNA expression of IL-6 (HMC3 microglial cells) | mRNA expression of TNF-α (HMC3 microglial cells) | inflammatory cytokine mRNA expression (HMC3 microglial cells)
1 | NCCCC(=O)O [GABA, γ-aminobutyric acid] | reduces apoptosis; also recorded: reduction of apoptosis | significantly reduce | significantly reduces | reduction of inflammatory cytokine mRNA expression
2 | YN-011: GLP-1 fusion protein of SEQ ID NO: 7: GLP-1 (A8G, G22E, R36G), linker peptide and IgG2/Fc domain (C222S, A330S, P331S) (protein) HGEGTFTSDVSSYLEEQAAKEFIAWLVKGGGSSGAPPPSGGGGSERKSCVECPPCPAPPVAGPSVFLFPPKPKDTLMISRTPEVTCVVVDVSHEDPEVQFNWYVDGVEVHNAKTKPREEQFNSTFRVVSVLTVVHQDWLNGKEYKCKVSNKGLPSSIEKTISKTKGQPREPQVYTLPPSREEMTKNQVSLTCLVKGFYPSDIAVEWESNGQPENNYKTTPPMLDSDGSFFLYSKLTVDKSRWQQGNVFSCSVMHEALHNHYTQKSLSLSPG | significantly reduces apoptosis; also recorded: reduction of apoptosis | significantly reduce | significantly reduce | reduction of inflammatory cytokine mRNA expression

— patent US20250376498A1, “FUSION PROTEINS COMPRISING AN IMPROVED GLP-1 RECEPTOR AGONIST AND USES THEREOF” (Guangzhou Innogen Pharmaceutical Group Co., Ltd., priority 2022, published 2025)
